Data from ChEMBL document CHEMBL1134077, “Synthesis of potent and selective dopamine D(4) antagonists as candidate radioligands” (Bioorg Med Chem Lett, 2001).

Experiments:
[1] = target: Muscarinic acetylcholine receptor M1 (Homo sapiens, UniProt P11229); experiment: (§1) Binding affinity to cloned Muscarinic acetylcholine receptor M1
D(4) dopamine receptor = target: T1, D(4) dopamine receptor (Rattus norvegicus, UniProt P30729); experiment: In vitro binding affinity to rat Dopamine receptor D4 measured by displacement of the radioligand [3H]spiperone
T1 sequence (P30729 whole entry): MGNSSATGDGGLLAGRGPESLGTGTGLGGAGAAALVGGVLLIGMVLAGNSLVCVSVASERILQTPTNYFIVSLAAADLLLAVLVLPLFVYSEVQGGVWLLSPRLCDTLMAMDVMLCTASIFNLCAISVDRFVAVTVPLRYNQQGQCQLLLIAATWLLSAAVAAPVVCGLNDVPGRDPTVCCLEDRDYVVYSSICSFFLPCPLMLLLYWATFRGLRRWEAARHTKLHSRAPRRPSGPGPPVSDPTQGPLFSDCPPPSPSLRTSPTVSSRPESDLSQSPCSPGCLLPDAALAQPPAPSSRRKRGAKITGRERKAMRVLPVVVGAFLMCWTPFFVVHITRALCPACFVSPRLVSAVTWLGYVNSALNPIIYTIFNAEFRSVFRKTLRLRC

[2] = Binding affinity to cloned Nicotinic acetylcholine receptors; parameters: species or system Rattus norvegicus
D(3) dopamine receptor = D(3) dopamine receptor (Rattus norvegicus, UniProt P19020); experiment: In vitro binding affinity to cloned rat Dopamine receptor D3 measured by displacement of the radioligand [3H]sulpiride
[3] = target: 5-hydroxytryptamine receptor 7 (Homo sapiens, UniProt P34969); experiment: In vitro binding affinity to human 5-hydroxytryptamine 7 receptor
[4] = target: 5-hydroxytryptamine receptor 1B (Homo sapiens, UniProt P28222); experiment: Binding affinity to cloned human 5-hydroxytryptamine 1B receptor
[5] = target: T2, Muscarinic acetylcholine receptor M5 (Homo sapiens, UniProt P08912); experiment: Binding affinity to cloned Muscarinic acetylcholine receptor M5
T2 sequence (P08912 whole entry): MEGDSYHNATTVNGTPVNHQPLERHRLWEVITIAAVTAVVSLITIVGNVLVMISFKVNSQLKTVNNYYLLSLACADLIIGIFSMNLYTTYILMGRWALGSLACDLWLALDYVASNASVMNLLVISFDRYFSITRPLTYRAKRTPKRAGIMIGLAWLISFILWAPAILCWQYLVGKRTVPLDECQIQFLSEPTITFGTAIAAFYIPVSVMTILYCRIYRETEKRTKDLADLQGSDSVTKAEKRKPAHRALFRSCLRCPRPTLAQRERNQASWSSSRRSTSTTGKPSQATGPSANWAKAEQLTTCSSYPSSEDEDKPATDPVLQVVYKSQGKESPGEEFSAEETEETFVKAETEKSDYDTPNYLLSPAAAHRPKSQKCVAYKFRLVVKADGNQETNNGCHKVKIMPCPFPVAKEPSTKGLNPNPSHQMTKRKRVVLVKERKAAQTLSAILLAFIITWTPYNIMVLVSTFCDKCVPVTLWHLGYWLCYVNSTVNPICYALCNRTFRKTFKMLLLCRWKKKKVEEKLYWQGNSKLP

Glutamate NMDA receptor = experiment: Binding affinity to PCP site of rat N-methyl-D-aspartate glutamate receptor; assay type: protein-complex assay
[6] = target: T3, 5-hydroxytryptamine receptor 1D (Homo sapiens, UniProt P28221); experiment: Binding affinity to cloned human 5-hydroxytryptamine 1D receptor
[7] = target: T4, Muscarinic acetylcholine receptor M1 (Homo sapiens, UniProt P11229); experiment: as §1; remark: listed apart in the source
T4 sequence (P11229 whole entry): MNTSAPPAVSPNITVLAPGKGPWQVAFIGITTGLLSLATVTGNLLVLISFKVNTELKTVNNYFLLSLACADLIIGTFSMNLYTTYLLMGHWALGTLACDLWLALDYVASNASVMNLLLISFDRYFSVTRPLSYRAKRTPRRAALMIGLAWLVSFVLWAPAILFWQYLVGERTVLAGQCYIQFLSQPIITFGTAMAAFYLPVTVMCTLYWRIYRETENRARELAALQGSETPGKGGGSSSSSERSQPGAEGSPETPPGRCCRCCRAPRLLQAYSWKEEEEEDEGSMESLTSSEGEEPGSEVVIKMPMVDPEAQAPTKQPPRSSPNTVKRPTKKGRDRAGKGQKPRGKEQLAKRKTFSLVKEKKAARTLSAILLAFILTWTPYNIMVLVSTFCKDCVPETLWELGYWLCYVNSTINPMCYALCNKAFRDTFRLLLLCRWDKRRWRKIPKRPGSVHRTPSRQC

[8] = target: T3, 5-hydroxytryptamine receptor 1D; experiment: In vitro binding affinity to human 5-hydroxytryptamine 1D receptor

T3 sequence (P28221 whole entry): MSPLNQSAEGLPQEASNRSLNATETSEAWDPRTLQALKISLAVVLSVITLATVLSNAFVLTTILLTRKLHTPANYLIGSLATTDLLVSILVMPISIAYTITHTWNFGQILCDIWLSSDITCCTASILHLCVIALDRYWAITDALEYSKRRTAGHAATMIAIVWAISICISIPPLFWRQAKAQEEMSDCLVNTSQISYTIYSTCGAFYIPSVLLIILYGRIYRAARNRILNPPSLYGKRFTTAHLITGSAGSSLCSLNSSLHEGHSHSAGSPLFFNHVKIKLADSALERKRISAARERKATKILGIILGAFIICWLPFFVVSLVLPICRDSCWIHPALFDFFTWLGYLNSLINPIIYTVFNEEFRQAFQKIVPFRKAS
Sequence of 5-hydroxytryptamine receptor 7 (P34969 whole entry): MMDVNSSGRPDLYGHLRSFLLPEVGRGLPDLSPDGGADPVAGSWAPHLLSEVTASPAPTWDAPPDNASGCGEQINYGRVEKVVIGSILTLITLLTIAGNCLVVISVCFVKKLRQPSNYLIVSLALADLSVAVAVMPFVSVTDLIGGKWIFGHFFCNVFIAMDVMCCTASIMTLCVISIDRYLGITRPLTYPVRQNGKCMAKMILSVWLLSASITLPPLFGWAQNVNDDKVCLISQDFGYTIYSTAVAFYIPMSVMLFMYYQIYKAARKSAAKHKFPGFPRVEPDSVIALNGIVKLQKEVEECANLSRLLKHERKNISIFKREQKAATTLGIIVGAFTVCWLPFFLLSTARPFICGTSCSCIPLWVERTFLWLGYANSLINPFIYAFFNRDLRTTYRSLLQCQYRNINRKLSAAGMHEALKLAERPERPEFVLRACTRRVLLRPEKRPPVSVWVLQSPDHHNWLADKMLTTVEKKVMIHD
Sequence of D(3) dopamine receptor (P19020 whole entry): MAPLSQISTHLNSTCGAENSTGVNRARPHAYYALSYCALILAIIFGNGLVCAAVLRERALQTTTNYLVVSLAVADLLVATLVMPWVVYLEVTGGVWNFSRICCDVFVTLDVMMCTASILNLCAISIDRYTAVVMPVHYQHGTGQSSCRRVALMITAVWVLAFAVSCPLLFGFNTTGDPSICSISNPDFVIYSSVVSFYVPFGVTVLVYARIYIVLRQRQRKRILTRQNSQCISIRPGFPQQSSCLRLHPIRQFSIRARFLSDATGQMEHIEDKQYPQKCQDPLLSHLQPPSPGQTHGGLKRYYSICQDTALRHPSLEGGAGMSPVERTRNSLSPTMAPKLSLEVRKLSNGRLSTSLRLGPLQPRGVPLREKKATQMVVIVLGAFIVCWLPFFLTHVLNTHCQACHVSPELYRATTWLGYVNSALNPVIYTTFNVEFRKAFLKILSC
Sequence of 5-hydroxytryptamine receptor 1B (P28222 whole entry): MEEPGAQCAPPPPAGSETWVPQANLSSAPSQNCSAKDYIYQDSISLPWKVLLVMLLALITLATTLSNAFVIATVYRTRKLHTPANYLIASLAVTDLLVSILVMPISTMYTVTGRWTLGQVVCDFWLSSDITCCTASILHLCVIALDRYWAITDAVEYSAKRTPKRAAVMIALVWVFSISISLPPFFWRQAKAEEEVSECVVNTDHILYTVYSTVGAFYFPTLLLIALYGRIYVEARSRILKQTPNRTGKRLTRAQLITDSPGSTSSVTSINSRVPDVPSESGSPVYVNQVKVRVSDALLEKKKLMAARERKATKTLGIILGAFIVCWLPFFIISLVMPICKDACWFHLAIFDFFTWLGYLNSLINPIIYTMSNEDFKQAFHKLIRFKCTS

Row | Structure (SMILES) | Ki [1] [µM] | Ki (D(4) dopamine receptor) [nM] | Ki [2] [µM] | Ki (D(3) dopamine receptor) [nM] | Ki [3] [nM] | Ki [4] [µM] | Ki [5] [µM] | Ki (Glutamate NMDA receptor) [µM] | Ki [6] [µM] | Ki [7] [µM] | Ki [8] [µM]
1 | Fc1ccccc1N1CCN(Cc2c[nH]c3ncccc23)CC1 | > 10 | 3.3 | > 10 | > 10000 | 213 | > 10 | > 10 | > 10 | > 10 |  | 
2 | CCc1ccc(N2CCN(Cc3c[nH]c4ncccc34)CC2)cc1 |  | 5 | > 10 | 1690 | 411 | > 10 | > 10 | > 10 | > 10 | > 10 | 
3 | COc1ccc(N2CCN(Cc3c[nH]c4ncccc34)CC2)cc1 | > 10 | 3.6 | > 10 | > 10000 | > 10000 | > 10 | > 10 | > 10 |  |  | > 10
4 | CSc1ccc(N2CCN(Cc3c[nH]c4ncccc34)CC2)cc1 | > 10 | 4.7 | > 10 | 45.7 | 336 | > 10 | > 10 | > 10 |  |  | > 10
5 | c1ccc(-c2ccc(N3CCN(Cc4c[nH]c5ncccc45)CC3)cc2)cc1 |  | 148 | > 10 | > 10000 | > 10000 | > 10 | > 10 | > 10 |  | > 10 | > 10
6 | CCCc1ccc(N2CCN(Cc3c[nH]c4ncccc34)CC2)cc1 |  | 6.7 | > 10 | 921 | 713 | > 10 | > 10 | > 10 | > 10 | > 10 | 
7 | Fc1ccc(N2CCN(Cc3c[nH]c4ncccc34)CC2)cc1 | > 10 | 2.3 | > 10 | > 10000 | 412 | > 10 | > 10 | > 10 | > 10 |  | 
8 | C=Cc1ccc(N2CCN(Cc3c[nH]c4ncccc34)CC2)cc1 |  | 2.8 | > 10 | > 10000 | > 10000 | > 10 | > 10 | > 10 | > 10 | > 10 | 
9 | COc1ccccc1N1CCN(Cc2c[nH]c3ncccc23)CC1 | > 10 | 1.4 | > 10 | 668 | 103 | > 10 | > 10 | > 10 |  |  | > 10
